{"source": "paper PMC9447362", "system": "P4 G4", "assay": "In vitro translation (IVT) assays", "assay_type": "biochemical, SARS-CoV-2", "note": "Like-named read-outs stand apart in the source and are kept apart here."}
{"smiles": "NCCOc1cc(C(=O)Nc2cc(OCCN3CCCC3)c3ccccc3n2)nc(C(=O)Nc2cc(OCCN3CCCC3)c3ccccc3n2)c1", "note": "[PDP]", "values": [{"measurement": "IVT of P4-Mut", "setting": "P4-Mut (G/A mutations)", "result": "not for P4-Mut"}]}
{"smiles": "C[n+]1ccc(-c2c3nc(c(-c4cc[n+](C)cc4)c4ccc([nH]4)c(-c4cc[n+](C)cc4)c4nc(c(-c5cc[n+](C)cc5)c5ccc2[nH]5)C=C4)C=C3)cc1", "note": "[TMPyP4, 5,10,15,20-tetrakis-(N-methyl-4-pyridyl)porphine]", "values": [{"measurement": "IVT of P4-Mut", "result": "not for P4-Mut"}]}
